Literature values, collected in US9828573B2, “Alcohol composition and derivatives thereof” (SHELL OIL COMPANY, priority 2015, dated 2017).

System: Proponibacterium acnes
Details: Journal of Natural Products Vol. 57, No. 1, pp. 9-17, January 1994

Compound: CCCCCCCCCCCCCCCO [Normal 1-pentadecanol, 1-pentadecanol]
- activity against Proponibacterium acnes: specific activity
